We go through two molecules from paper PMC8881573, “Inhibition of SRP-dependent protein secretion by the bacterial alarmone (p)ppGpp” (Nature Communications, 2022).

In one assay the target is T1, SRP/FtsY (Escherichia coli, UniProt P0AGD7+P10121).
T1 construct: (Ec)Ffh (full-length) was concentrated on a 10 kDa centrifugal filter; (Ec)FtsY (full-length) was re-buffered in HT buffer; His-tag; made in house; host or cells: E. coli
Nature of the assay: Floatation analysis of co-translational membrane targeting of RNCs to SecYEG-proteoliposomes. The settings on record: 50 µM final concentration, 10 µM GTP. The assay is classed as biochemical, E. coli. The method, then:
For in vitro synthesizing FtsQ- and LepB-RNCs, the T7-dependent expression vectors pKSM-FtsQ and pKSM-LepB were used[37],[79]. In brief, the first 102 amino acids of LepB, and the first 120 amino acids of FtsQ were fused to the SecM stalling sequence and cloned into the pET19b vector. In vitro synthesis was performed in a coupled transcription/translation system as described for YohP. After in vitro synthesis, the RNCs were incubated with INVs (1 µL), liposomes (2 µL), or SecYEG-proteoliposomes (2 µL; 100 ng SecYEG µL^−1) in floatation buffer (50 mM triethanolamine acetate, pH 8.0; 10 µM GTP, 10 mM magnesium acetate, 70 mM potassium acetate; 250 mM sucrose and 1 mM DTT) for 15 min at 25 °C. When indicated, SRP/FtsY (20 ng µL^−1 each) and ppGpp or pppGpp (50 µM final concentration) was present during incubation. Membrane binding of RNCs was assayed by floatation analyses. The reaction mixture was adjusted to 1.6 M sucrose (final volume 100 µL) and overlaid with 200 µL of 1.25 M sucrose and 100 µL 0.25 M sucrose, each prepared in floatation buffer. Following centrifugation in a TLA 100.2 rotor (Beckmann-Coulter) at […] for 90 min, the upper 200 µL of the gradient, containing the membrane fraction (MF) were withdrawn and precipitated with 10% (w/v) TCA (final concentration). The pelleted (non-bound soluble fraction, SF) RNCs were resuspended in the remaining 200 µL of the gradient and TCA precipitated. Samples were subsequently analyzed by 15% SDS-PAGE and autoradiography. RNC binding to membranes was quantified by using the ImageQuant (GE Healthcare, München, Germany) software. The experiments were performed at least three times as independent experiments and representative images are shown. Mean values and SEM values were determined by using either Excel (Microsoft Corp.) or GraphPad Prism (GraphPad Prism Corp. San Diego).

Assay [1] addresses T2, full-length (Ec)Ffh and (Ec)FtsY-NG (Escherichia coli, UniProt P0AGD7+P10121).
T2 construct: GTPase activity of full-length (Ec)Ffh and the NG domain of (Ec)FtsY was assayed; His-tag; His6 (C); made in house; host or cells: E. coli BL21 (DE3)
The experiment in a line: GTPase activity (GTP hydrolysis, HPLC). The assay is classed as biochemical, E. coli. The settings on record: alarmone at concentrations equimolar to the GTP substrate (1 mM) or higher; with or without 4.5S RNA, ΔEspP signal peptide, C12E8. The method, then:
GTPase activity of full-length (Ec)Ffh and the NG domain of (Ec)FtsY was assayed in a buffer containing 25 mM HEPES-K pH 7.5, 10 mM Mg(OAc)2, 300 mM K(OAc), 1 mM DTT, and 2.5% (v/v) glycerol. The samples contained 5 µM (Ec)Ffh, 5 µM (Ec)FtsY-NG, 6 µM 4.5S RNA, 5 µM ΔEspP (EspP signal peptide sequence: MKK HKR ILA LCF LGL LQS SYS WAK KKK, custom synthesized from Genosphere Biotechnologies (France)[40], and 100 µM C12E8 (octaethylenglykol-monododecylether, Sigma Aldrich)[40] as indicated in figures. Alarmones ppGpp (Jena Bioscience, ≥95% purity) or pppGpp (Jena Bioscience, ≥85% purity) were supplemented in concentrations of 10, 25, 100, 250, 1000, 2500, or 10,000 µM as indicated in the figures. The enzymatic reactions were initiated by the addition of 1 mM GTP (Jena Bioscience, ≥99% purity) and allowed to proceed for 60 min at 37 °C, after which 40 µL double-distilled water were added immediately followed by 150 µL of chloroform. […] The nucleotide content was determined by high-performance liquid chromatography (HPLC) on an Agilent 1260 Infinity system (software: ChemStation Rev. B04.03-SP1) equipped with a Metrosep A Supp 5–150/4.0 column (Metrohm). Ten microliters of sample were injected and nucleotides eluted isocratically at 0.6 mL min^−1 flow rate of 100 mM (NH4)2CO3 pH 9.25 and detected at 260 nm wavelength. […]

The target of the next assay is GTPase RbgA. On the set-up: method as in PMID 30366986. The settings on record: read-out: inhibitor constant Ki; cited from earlier work.
Another assay concerns the target T3, (Ec)Ffh-NG (Escherichia coli, UniProt P0AGD7).
T3 construct: purified NG domains of (Ec)Ffh, (Ec)FtsY and (Bs)Ffh; His6 (C); made in house; host or cells: E. coli BL21 (DE3)
The experiment in a line: Microscale thermophoresis (MST) ligand binding. On the set-up: species or system E. coli. The settings on record: NG domain labeled with NT 647, 21 °C. The method, then:
(§1) Ligand binding assays with purified NG domains of (Ec)Ffh, (Ec)FtsY and (Bs)Ffh proteins were carried out by microscale thermophoresis (MST)[80]. All experiments were performed on a Monolith NT.115 (NanoTemper Technologies GmbH, Munich, Germany; software: NanoTemper Control Version 2.0.2.29) at 21 °C (red LED power was set to 50–100% and infrared laser power to 75%). After labeling of primary amines within (Ec)Ffh, (Ec)FtsY, and (Bs)Ffh (50 µM each) with the dye NT 647 (according to the manufacturers protocol), the proteins were re-buffered in SEC buffer containing 20 mM HEPES-Na, 20 mM KCl, 20 mM MgCl2, 200 mM NaCl (final pH 7.5), 10 mg ml^−1 BSA and 0.007% Tween. Two-hundred nanomolar of (Ec)Ffh, (Ec)FtsY, and (Bs)Ffh were titrated with GDP, GTP, ppGpp, and pppGpp starting from a concentration ranging between 0.75 and 3 mM, respectively. At least six independent MST experiments per ligand and protein were recorded at 680 nm and analyzed using NanoTemper Analysis version 1.5.37 and 1.2.009, and Origin8G software suits.

The target of another assay is T4, (Ec)FtsY-NG (Escherichia coli, UniProt P10121).
T4 construct: purified NG domains of (Ec)Ffh, (Ec)FtsY and (Bs)Ffh; His6 (C); made in house; host or cells: E. coli BL21 (DE3)
T4 sequence (P10121 197-497): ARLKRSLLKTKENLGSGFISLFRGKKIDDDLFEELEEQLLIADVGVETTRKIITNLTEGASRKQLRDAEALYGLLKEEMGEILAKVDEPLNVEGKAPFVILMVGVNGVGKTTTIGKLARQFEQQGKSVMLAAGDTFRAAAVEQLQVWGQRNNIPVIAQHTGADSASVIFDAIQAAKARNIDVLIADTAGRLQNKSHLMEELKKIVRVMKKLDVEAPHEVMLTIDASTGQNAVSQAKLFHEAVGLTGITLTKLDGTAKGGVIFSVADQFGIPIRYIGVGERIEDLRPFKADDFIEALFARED
The experiment in a line: Microscale thermophoresis (MST) ligand binding. Set-up: species or system E. coli. The settings on record: NG domain labeled with NT 647, 21 °C; read-out: (Ec)FtsY KD MST. On the procedure: as §1
For orientation: MST reads how a fluorescent partner responds to local heating, with and without ligand.

T3 sequence (P0AGD7 1-296): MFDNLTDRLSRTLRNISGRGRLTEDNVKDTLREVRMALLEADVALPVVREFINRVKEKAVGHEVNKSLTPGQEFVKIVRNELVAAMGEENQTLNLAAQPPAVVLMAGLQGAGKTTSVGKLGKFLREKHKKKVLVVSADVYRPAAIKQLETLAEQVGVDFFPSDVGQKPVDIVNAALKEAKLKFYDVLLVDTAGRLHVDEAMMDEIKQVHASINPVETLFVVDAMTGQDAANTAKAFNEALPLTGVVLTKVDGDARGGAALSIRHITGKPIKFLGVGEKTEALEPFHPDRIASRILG
T1 sequence (P0AGD7 whole entry): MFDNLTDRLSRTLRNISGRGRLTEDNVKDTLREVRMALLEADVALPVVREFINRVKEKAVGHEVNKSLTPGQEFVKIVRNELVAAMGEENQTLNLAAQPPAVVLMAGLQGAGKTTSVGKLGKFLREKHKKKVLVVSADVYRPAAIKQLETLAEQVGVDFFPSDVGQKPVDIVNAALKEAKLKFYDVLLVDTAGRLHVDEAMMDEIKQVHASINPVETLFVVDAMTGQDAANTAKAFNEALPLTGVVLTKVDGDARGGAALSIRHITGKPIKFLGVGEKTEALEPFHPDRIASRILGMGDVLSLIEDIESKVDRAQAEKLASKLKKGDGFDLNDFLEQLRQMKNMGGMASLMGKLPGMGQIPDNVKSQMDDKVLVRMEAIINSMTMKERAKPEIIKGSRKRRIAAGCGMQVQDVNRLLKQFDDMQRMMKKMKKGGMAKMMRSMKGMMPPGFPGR
T1 sequence (P10121 whole entry): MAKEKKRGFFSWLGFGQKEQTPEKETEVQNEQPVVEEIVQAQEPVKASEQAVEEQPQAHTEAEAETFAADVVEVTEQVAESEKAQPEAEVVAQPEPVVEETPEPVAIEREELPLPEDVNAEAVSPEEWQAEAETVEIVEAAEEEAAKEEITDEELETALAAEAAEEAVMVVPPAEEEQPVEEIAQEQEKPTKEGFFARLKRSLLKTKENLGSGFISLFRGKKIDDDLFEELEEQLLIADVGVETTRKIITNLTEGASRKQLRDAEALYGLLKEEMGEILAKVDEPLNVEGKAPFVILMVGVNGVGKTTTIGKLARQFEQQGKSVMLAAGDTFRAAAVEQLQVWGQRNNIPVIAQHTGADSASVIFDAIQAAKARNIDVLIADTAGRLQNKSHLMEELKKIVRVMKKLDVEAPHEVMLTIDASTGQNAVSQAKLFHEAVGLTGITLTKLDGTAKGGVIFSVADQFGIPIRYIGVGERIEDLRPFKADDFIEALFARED
T2 sequence (P0AGD7 whole entry, the tested form may be a part): as the sequence (P0AGD7 whole entry) above
T2 sequence (P10121 197-497): as the sequence (P10121 197-497) above

As a reminder, the Ki is a dissociation constant, usually derived from enzyme kinetics or from competition with a known ligand. Usually Kd stands for the equilibrium constant for the complex coming apart. As to `Nc1nc2c(ncn2[C@@H]2O[C@H](COP(=O)(O)OP(=O)(O)O)[C@@H](OP(=O)(O)OP(=O)(O)O)[C@H]2O)c(=O)[nH]1` [ppGpp], on SRP/FtsY, the “membrane targeting of FtsQ-RNCs” value is “completely blocked” and the “membrane targeting of LepB-RNCs” value is “completely blocked”. Moreover, the GTP hydrolysis result in assay [1] is reported as “reduction of GTP hydrolysis”. The Ki on GTPase RbgA is 300 µM. The dissociation constant Kd on (Ec)Ffh-NG stood at 13.5 µM. Further, the Kd at (Ec)FtsY-NG came to 30 µM.
As to `Nc1nc2c(ncn2[C@@H]2O[C@H](COP(=O)(O)OP(=O)(O)OP(=O)(O)O)[C@@H](OP(=O)(O)OP(=O)(O)O)[C@H]2O)c(=O)[nH]1` [pppGpp], at SRP/FtsY, the “membrane targeting of FtsQ-RNCs” value was “completely blocked” and the “membrane targeting of LepB-RNCs” value is recorded as “completely blocked”. In assay [1], the GTP hydrolysis result is “reduction of GTP hydrolysis”. Also, the Ki at GTPase RbgA was 500 µM. The Kd at (Ec)Ffh-NG was found to be 68.3 µM. Also, on (Ec)FtsY-NG, the Kd was determined as 66.6 µM.
